Square brackets hold non-standard residues; d marks the D form. Peptide text beside a SMILES is read from it. * marks the point of attachment. Dolaproine = CO[C@@H]([C@@H]1CCCN1)[C@@H](C)C(=O)O; Dil = CC[C@H](C)[C@H](NC)[C@@H](CC(=O)O)OC; dVal(3-OH) = CC(C)(O)[C@@H](N)C(=O)O; Val(3-OH) = CC(C)(O)[C@H](N)C(=O)O; Doe = c1ccc(C[C@H](N*)c2nccs2)cc1; X1 = C[C@@H](N*)[C@@H](O)c1ccccc1; NMeV = CN[C@H](C(=O)O)C(C)C; NMeAib = CNC(C)(C)C(=O)O; Aib = CC(C)(N)C(=O)O
Assays:
Format in all cases: cell-based
[1] = test system: MES-SA (human uterine sarcoma) cells; assay: Inhibitory response against MES-SA cells (Cell Titer-Glo); settings: 72 hours of culture, inhibition of cell growth
Protocol: (§1) MES-SA (human uterine sarcoma) cells were seeded in a clear polystyrene 96-well microculture plate (Corning® Costar® 96-well flat bottom plate, Cat. #3997) in a total volume of 90 μL/well. After 24 hours of incubation in a humidified incubator at 37° C. with 5% CO2 and 95% air, 10 μL of 10×, serially diluted test agents in growth medium were added to each well (10 pt dose response curve, highest concentration 10 μM of test agent). After 72 hours of culture in a humidified incubator at 37° C., in an atmosphere of 5% CO2 and 95% air, the plated cells and Cell Titer-Glo® (Promega G7571) reagents were brought to room temperature to equilibrate for 30 minutes. 100 μL of Cell Titer-Glo® reagent was added to each well. The plate was shaken for two minutes and then left to equilibrate for ten minutes. The media/Cell Titer-Glo® reagent was transferred to a white polystyrene 96-well microculture plate (Corning® Costar® 96-well flat bottom plate, Cat. #3917) before reading luminescence on a Tecan GENios microplate reader.
Percent inhibition of cell growth is calculated relative to untreated control wells. The IC50 value for the test agents is determined using Prism 6.05 by curve-fitting of the data using the following four parameter-logistic equation:
(§2) [formula] where Top is the maximal % of control absorbance, Bottom is the minimal % of control absorbance at the highest agent concentration, Y is the % of control absorbance, X is the agent concentration, IC50 is the concentration of agent that inhibits cell growth by 50% compared to the control cells, and n is the slope of the curve.

[2] = test system: MES-SA/Dx (multidrug-resistant human uterine sarcoma) cells; assay: Inhibitory response against MES-SA/Dx cells (Cell Titer-Glo); settings: 72 hours of culture, inhibition of cell growth
Protocol: MES-SA/Dx (multidrug-resistant human uterine sarcoma) cells are seeded in a clear polystyrene 96-well microculture plate in a total volume of 90 μL/well. After 24 hours of incubation in a humidified incubator at 37° C. with 5% CO2 and 95% air, 10 μL of 10×, serially diluted test agents in growth medium are added to each well. After 72 hours of culture in a humidified incubator at 37° C., in an atmosphere of 5% CO2 and 95% air, the plated cells and Cell Titer-Glo® (Promega G7571) reagents are brought to room temperature to equilibrate for 30 minutes. 100 μL of Cell Titer-Glo® reagent are added to each well. The plate is shaken for two minutes and then left to equilibrate for ten minutes. The media/Cell Titer-Glo® reagent is transferred to a polystyrene 96-well microculture plate before reading luminescence on a Tecan GENios microplate reader.
Percent inhibition of cell growth is calculated relative to untreated control wells. The IC50 value for the test agents is determined using Prism 6.05 by curve-fitting of the data using the following four parameter-logistic equation: […]

[3] = test system: BT-474 human mammary gland ductal carcinoma cells; assay: Inhibitory response against BT-474 cells (Cell Titer-Glo); settings: 72 hours of culture, inhibition of cell growth
Protocol: as §1, with “BT-474 human mammary gland ductal carcinoma” for “MES-SA (human uterine sarcoma)”, “[…]” for “μM”
(§3) Percent inhibition of cell growth was calculated relative to untreated control wells. The IC50 value for the test agents was determined using Prism 6.05 by curve-fitting of the data using the following four parameter-logistic equation:
as §2

[4] = test system: HCC1954 cells; assay: Inhibitory response against HCC1954 cells (method analogous to BT-474); settings: Homo sapiens, inhibition of cell growth
Protocol: as §1, with “BT-474 human mammary gland ductal carcinoma” for “MES-SA (human uterine sarcoma)”, “[…]” for “μM”
as §3, §2
Inhibitory response of test compounds against HCC1954 cells was determined using a method analogous to that used for BT-474 cells.

Compound	IC50 [1]	IC50 [2]	IC50 [3]	IC50 [4]
CC[C@H](C)[C@@H]([C@@H](CC(=O)N1CCC[C@H]1[C@H](OC)[C@@H](C)C(=O)N[C@@H](Cc1ccccc1)c1nccs1)OC)N(C)C(=O)[C@@H](NC(=O)[C@H](C(C)C)N(C)C)C(C)(C)O [Compound 101]	35 pM	6370 pM	2.2 pM	4 pM
CC[C@H](C)[C@@H]([C@@H](CC(=O)N1CCC[C@H]1[C@H](OC)[C@@H](C)C(=O)N[C@@H](Cc1ccccc1)c1nccs1)OC)N(C)C(=O)[C@@H](NC(=O)C(C)(C)NC)C(C)(C)O [Compound 107] (H-[NMeAib][Val(3-OH)][Dil][Dolaproine]-Doe)			64 pM	30 pM
CC[C@H](C)[C@@H]([C@@H](CC(=O)N1CCC[C@H]1[C@H](OC)[C@@H](C)C(=O)N[C@H](C)[C@@H](O)c1ccccc1)OC)N(C)C(=O)[C@@H](NC(=O)[C@H](C(C)C)N(C)C)C(C)(C)O [Compound 108]			140 pM	460 pM
CC[C@H](C)[C@@H]([C@@H](CC(=O)N1CCC[C@H]1[C@H](OC)[C@@H](C)C(=O)N[C@H](C)[C@@H](O)c1ccccc1)OC)N(C)C(=O)[C@@H](NC(=O)[C@@H](NC)C(C)C)C(C)(C)O [Compound 109] (H-[NMeV][Val(3-OH)][Dil][Dolaproine]-X1)	14900 pM		26100 pM	10900 pM
CC[C@H](C)[C@@H]([C@@H](CC(=O)N1CCC[C@H]1[C@H](OC)[C@@H](C)C(=O)N[C@H](C)[C@@H](O)c1ccccc1)OC)N(C)C(=O)[C@@H](NC(=O)C(C)(C)NC)C(C)(C)O [Compound 110] (H-[NMeAib][Val(3-OH)][Dil][Dolaproine]-X1)	4180 pM		9090 pM	2920 pM
CC[C@H](C)[C@@H]([C@@H](CC(=O)N1CCC[C@H]1[C@H](OC)[C@@H](C)C(=O)N[C@@H](Cc1ccccc1)c1nccs1)OC)N(C)C(=O)[C@H](CSC)NC(=O)C(C)(C)NC [Compound 111] (H-[NMeAib]C(Me)[Dil][Dolaproine]-Doe)			863 pM	65.6 pM
CC[C@H](C)[C@@H]([C@@H](CC(=O)N1CCC[C@H]1[C@H](OC)[C@@H](C)C(=O)N[C@@H](Cc1ccccc1)c1nccs1)OC)N(C)C(=O)[C@@H](NC(=O)C(C)(C)N)C(C)(C)O [Compound 113] (H-[Aib][Val(3-OH)][Dil][Dolaproine]-Doe)			1220 pM	1240 pM
CC[C@H](C)[C@@H]([C@@H](CC(=O)N1CCC[C@H]1[C@H](OC)[C@@H](C)C(=O)N[C@@H](Cc1ccccc1)c1nccs1)OC)N(C)C(=O)[C@H](NC(=O)C(C)(C)NC)C(C)(C)O [Compound 114] (H-[NMeAib][dVal(3-OH)][Dil][Dolaproine]-Doe)			61.6 pM	17 pM
